# Laboratory results from patent US20130183719A1, “METHOD FOR PRODUCING VIRUS VECTOR” (priority 2010, published 2013).
# Legend:
# [1] = test system: retrovirus vector; assay: RNA copy number in retrovirus supernatant (Retrovirus Titer Set, real time PCR); settings: Example 9; FIG. 9
# Method: (§1) A working cell bank (WCB) prepared from the cloned cell obtained in Example 7-1 was thawed in a water bath at 37° C. The cell solution thus thawed was put into a 15 mL centrifuging tube. After addition of a complete medium [a DMEM medium (manufactured by Gibco) containing 10% fetal bovine serum (10% FBS, manufactured by SAFC Biosciences)], the tube was subjected to centrifugation (500×g, 5 minutes, 20° C.). After the centrifugation, a supernatant was removed, and the cells were suspended in 10 mL of the complete medium and then counted. After cell counting, the cell suspension was adjusted with the complete medium to 78.5×10^4 cells/mL. To a 100 mm dish for cell culture (manufactured by IWAKI) were added 1 mL of the cell suspension and 14.7 mL of the complete medium. The cell culture was carried out in a CO2 incubator (37° C., 95% of humidity, 5% CO2). The cell was subcultured at intervals of 3 days. […]
# The RNA copy number was determined using Retrovirus Titer Set (for Real Time PCR) (manufactured by TAKARA BIO INC.) according to a standard method described in the directions for use attached to the product.
# The retrovirus producer cell as described in Example 7-1 was used to prepare virus supernatants. […] However, virus supernatants collected over 3 days were mixed and evaluated in this Example, whereas virus supernatants were collected over 4 days in Example 2-1.
# [2] = test system: PBMC; assay: Gene transduction of PBMC with MS-MA24-siTCR retrovirus supernatants from producer cells cultured in the test media (CD8/MAGE-A4 tetramer flow cytometry); format: cell-based, human; settings: Example 9; FIG. 8
# Source text: A HEK 293 T cell (ATCC CRL-11268) was transfected with the codon modified TCR and siRNA-coexpression retroviral vector (MS-MA24-siTCR) described in WO 2008/153029 using Retrovirus Packaging Kit Eco (manufactured by TAKARA BIO INC.) according to the manufacturer's protocol to obtain an ecotropic retrovirus supernatant. The virus supernatant was filtered with a 0.45 μm filter (Milex HV, manufactured by Millipore). A PG13 cell was infected with the filtrate by a method using polybrene, and then cloned by a limiting dilution method.
# as §1, with “CO2).” for “CO2). The cell was subcultured at intervals of 3 days.”
compound,measurement,setting,value
"CC(/C=C/C(=O)NO)=C\[C@@H](C)C(=O)c1ccc(N(C)C)cc1 [TSA, trichostatin A]","RNA copy number, TSA 500 nM compared with 50 nM",[1],more effective
same,"gene transduction efficiency, TSA 500 nM compared with 50 nM",[2],more effective
